# Results reported in patent US20110152313A1 (MACQUARIE UNIVERSITY, priority 2008, published 2011).
# pKd: −log10 of the molar value.
# Experiments:
# GRK1 = molecular target: T1, GRK1 (Homo sapiens, UniProt Q15835); assay: kinase binding screen (kinase-tagged T7 phage, qPCR), % Ctrl
# T1 sequence (Q15835 1-563): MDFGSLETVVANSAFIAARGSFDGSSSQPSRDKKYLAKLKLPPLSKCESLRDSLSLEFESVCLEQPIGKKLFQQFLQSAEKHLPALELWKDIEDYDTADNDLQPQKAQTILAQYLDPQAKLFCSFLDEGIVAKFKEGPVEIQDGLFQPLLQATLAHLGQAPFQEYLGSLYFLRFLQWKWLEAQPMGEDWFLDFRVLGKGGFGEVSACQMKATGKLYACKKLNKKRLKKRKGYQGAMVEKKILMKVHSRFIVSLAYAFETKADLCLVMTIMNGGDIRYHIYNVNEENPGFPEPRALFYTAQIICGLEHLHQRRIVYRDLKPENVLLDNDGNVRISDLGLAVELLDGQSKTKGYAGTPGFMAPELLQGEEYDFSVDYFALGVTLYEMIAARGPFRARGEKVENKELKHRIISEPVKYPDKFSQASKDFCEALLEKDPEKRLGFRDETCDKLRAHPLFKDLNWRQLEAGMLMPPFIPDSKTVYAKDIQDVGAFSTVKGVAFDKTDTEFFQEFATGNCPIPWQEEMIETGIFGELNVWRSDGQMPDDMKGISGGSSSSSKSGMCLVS
# In short: (§1)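 Steps: grow T7 phage displaying kinase in BL21-derived E. coli; clarify lysate; combine with ligand-liganded, blocked beads and compound (single concentration, diluted from 40× DMSO stock); elute; quantify kinase by qPCR.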
# CAMKK1 = CAMKK1 (Homo sapiens, UniProt Q8N5S9); assay: as above
# Sequence of CAMKK1 (Q8N5S9 whole entry): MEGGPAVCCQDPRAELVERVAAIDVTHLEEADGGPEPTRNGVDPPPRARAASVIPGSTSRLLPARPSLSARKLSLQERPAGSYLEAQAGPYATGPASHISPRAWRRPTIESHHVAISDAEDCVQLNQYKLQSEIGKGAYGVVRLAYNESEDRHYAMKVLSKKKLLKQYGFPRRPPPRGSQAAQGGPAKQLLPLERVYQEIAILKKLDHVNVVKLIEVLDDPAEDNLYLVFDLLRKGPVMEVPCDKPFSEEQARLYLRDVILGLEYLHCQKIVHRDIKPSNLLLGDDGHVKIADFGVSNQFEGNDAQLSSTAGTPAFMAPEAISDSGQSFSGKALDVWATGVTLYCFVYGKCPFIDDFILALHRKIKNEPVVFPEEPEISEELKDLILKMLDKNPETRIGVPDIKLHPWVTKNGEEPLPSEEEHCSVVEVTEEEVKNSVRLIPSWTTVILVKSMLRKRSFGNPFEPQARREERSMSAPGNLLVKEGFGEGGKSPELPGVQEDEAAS
# In short: as §1
# PRKCE = molecular target: T2, PRKCE (Homo sapiens, UniProt Q02156); assay: as above
# T2 sequence (Q02156 1-737): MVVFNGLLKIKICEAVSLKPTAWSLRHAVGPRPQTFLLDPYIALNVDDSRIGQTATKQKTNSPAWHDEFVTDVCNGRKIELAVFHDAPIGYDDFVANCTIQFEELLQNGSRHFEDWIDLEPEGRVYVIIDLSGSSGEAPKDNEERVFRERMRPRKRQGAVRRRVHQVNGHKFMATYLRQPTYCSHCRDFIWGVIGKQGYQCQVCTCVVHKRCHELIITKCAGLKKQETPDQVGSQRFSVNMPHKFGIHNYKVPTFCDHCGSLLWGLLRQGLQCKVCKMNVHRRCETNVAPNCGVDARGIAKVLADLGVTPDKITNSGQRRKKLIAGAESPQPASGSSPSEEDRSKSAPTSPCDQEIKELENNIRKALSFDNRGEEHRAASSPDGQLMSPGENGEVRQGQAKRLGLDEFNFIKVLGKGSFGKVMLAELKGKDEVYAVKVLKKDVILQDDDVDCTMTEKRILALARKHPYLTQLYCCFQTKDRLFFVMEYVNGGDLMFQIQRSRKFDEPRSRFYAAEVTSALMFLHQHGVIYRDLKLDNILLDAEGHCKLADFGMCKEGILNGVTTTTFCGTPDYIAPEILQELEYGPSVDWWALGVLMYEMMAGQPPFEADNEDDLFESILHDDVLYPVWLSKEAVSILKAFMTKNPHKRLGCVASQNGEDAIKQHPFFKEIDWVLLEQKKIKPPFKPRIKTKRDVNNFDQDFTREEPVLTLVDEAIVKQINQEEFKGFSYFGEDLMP
# In short: as §1
# DYRK1A = DYRK1A (Homo sapiens, UniProt Q13627); assay: kinase binding constant, 11-point dose response (T7 phage, qPCR); conditions: >30 = no inhibition at highest concentration tested
# Description: Kinase inhibition studies were performed by methods well known in the prior art (Fabian, M. A. et al. Nat. Biotechnol. 2005, 23, 329). Briefly, kinase-tagged T7 phage strains were prepared in an E. coli host derived from the BL21 strain. E. coli were grown to log-phase and infected with T7 phage and incubated with shaking at 32° C. until lysis. The lysates were centrifuged and filtered to remove cell debris. […] The liganded beads were blocked with excess biotin and washed with blocking buffer (SeaBlock (Pierce); 1% BSA, 0.05% Tween 20, 1 mM DTT) to remove unbound ligand and to reduce non-specific binding. […] All reactions were performed in polystyrene 96-well plates in a final volume of 0.135 ml. […] The kinase concentration in the eluates was measured by qPCR.
# An 11-point 3-fold serial dilution of each test compound (from 30 μM to 0.5 nM) was prepared in 100% DMSO at 100× final test concentration and subsequently diluted to 1× in the assay (final DMSO concentration=1%). Binding constants (KDS) were calculated with a standard dose-response curve using a 5-point sigmoidal (Hill) equation.
remaining activity at 10 µM (GRK1; 10 μM),remaining activity at 10 µM (CAMKK1; 10 μM),remaining activity at 10 µM (PRKCE; 10 μM),SMILES,remaining activity at 1 µM (GRK1),remaining activity at 1 µM (CAMKK1),remaining activity at 1 µM (PRKCE),pKd (DYRK1A)
85%,100%,100%,"Nc1nc2c(-c3cc(Br)c(Br)[nH]3)nccc2[nH]1 [Ageladine A, ageladine A, reference compound]",80%,92%,54%,
,,,"Nc1nc2c(-c3ccccn3)nccc2[nH]1 [drawing 35, 4-(pyrid-2-yl)-1H-imidazo[4,5-c]pyridin-2-amine]",49%,19%,20%,6.54
,,,"Nc1nc2c(-c3cnc4ccccc4c3)nccc2[nH]1 [drawing 36, 4-(quinolin-3-yl)-1H-imidazo[4,5-c]pyridin-2-amine]",86%,100%,100%,6.52
